Results as given in patent publication US8604217B2, “Compound, a process for its preparation, a pharmaceutical composition, use of a compound, a method for modulating or regulating serine/threonine kinases and a serine/threonine kinases modulating agent” (Selvita S.A., priority 2009, dated 2013).

Legend:
[1] = test system: human prostate adenocarcinoma PC3 cells; experiment: Growth inhibition test (MTS) on PC3 cells; type: cell-based; settings: Homo sapiens, PC-3, 72 hours, read-out: PC-3 ED50
PIM-1 = PIM-1 (Homo sapiens (Human), UniProt P11309); experiment: Luminometric kinase assay for PIM1 kinase (Kinase-Glo); type: biochemical; settings: 1 μM ATP, 25 min at RT
Sequence of PIM-1 (P11309 whole entry): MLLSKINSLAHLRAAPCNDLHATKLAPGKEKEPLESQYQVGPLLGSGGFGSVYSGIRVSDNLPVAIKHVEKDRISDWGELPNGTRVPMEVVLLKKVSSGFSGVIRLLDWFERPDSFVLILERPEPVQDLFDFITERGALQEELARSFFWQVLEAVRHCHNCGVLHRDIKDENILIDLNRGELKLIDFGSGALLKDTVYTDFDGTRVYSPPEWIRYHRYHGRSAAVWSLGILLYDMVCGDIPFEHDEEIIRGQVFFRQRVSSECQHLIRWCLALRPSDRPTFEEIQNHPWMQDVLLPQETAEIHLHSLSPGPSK
Summary of the method: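 Kinase and substrate reacted in 8 mM MOPS/NaOH pH7.0, 0.2 mM EDTA, 2 mM MgCl2 with 1 μM ATP for 25 min at RT, compounds serially diluted from 1 μM. Remaining ATP read by Kinase-Glo luminescence; IC50 from variable-slope sigmoidal fit.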

[2] = test system: human hepatoma HepG2 cells; experiment: Growth inhibition test (MTS) on HepG2 cells; type: cell-based; settings: 72 hours, read-out: HepG2 ED50
Summary of the method: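 HepG2 cells in DMEM with 10% FCS were exposed for 72 h at 37 °C, 5% CO2, to 0.1, 0.5, 1, 2.5, 5 and 10 micromol/L compound. MTS was then added for 2 h and absorbance read at 490 nm. % viability was calculated relative to untreated cells set at 100%.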

[3] = test system: human colorectal adenocarcinoma SW480 cells; experiment: Growth inhibition test (MTS) on SW480 cells; type: cell-based; settings: Homo sapiens, SW480, 72 hours, read-out: SW480 ED50
Description: Two thousand cells of human colorectal adenocarcinoma SW480 were inoculated into each well of a 96-well microplate (manufactured by Corning Corp.), and using DMEM/Ham's F121:1 medium (culture medium) containing 5% fetal calf serum (FCS). Next day, a dimethyl sulfoxide (DMSO) solution of each test compound prepared in a concentration of 10 mmol/L was further diluted with culture medium to the desired concentrations (0.1, 0.5, 1, 2.5, 5 and 10 micromol/L), and the diluted solution was added to each well. The individual wells were further cultured in 5% carbon dioxide at 37° C. for 72 hours. After completion of the culture, 10 μl MTS (3-(4,5-Dimethyl-2-thiazolyl)-5-(carboxymethoxyphenyl)-2-(4-sulfophenyl)-2H-tetrazolium, inner salt assay (CellTiter96® AQueous One Solution Cell Proliferation Assay, Promega) was added to each well, and culturing was performed in 5% carbon dioxide at 37° C. for 2 hours. Using a microplate spectrophotometer (Synergy 2 multi-mode microplate reader (BioTek)), the absorbance of each well was measured at 490 nm. The value for cells not incorporated with a test compound was designated as 100%. By comparing these values with the absorbance difference obtained at the well in which each test compound was added, the cell viability (% viability) after treatment with the test compound was calculated.

[4] = test system: human myelomonocytic, biphenotypic leukemia MV4-11 cells; experiment: Growth inhibition test (MTS) on MV4-11 cells; type: cell-based; settings: Homo sapiens, MV4-11, 72 hours, read-out: MV-4-11 ED50
Summary of the method: MV4-

| Compound | IC50 [1] | IC50 (PIM-1) | IC50 [2] | IC50 [3] | IC50 [4] |
| --- | --- | --- | --- | --- | --- |
| CN(C)C1CCCN(c2nc3c(Br)c(Br)c(Br)c(Br)c3[nH]2)C1 (centres unmarked) [Compound 378, 1-(4,5,6,7-tetrabromo-1H-benzo[d]imidazol-2-yl)-N,N-dimethylpiperidin-3-amine] | 6.66 µM | 0.0391 µM | 4.2 µM | 5 µM | 6.15 µM |
| Brc1c(Br)c(Br)c2[nH]c(N3CCC(C4CCNCC4)CC3)nc2c1Br [Compound 386, 4,5,6,7-tetrabromo-2-(4-(piperidin-4-yl)piperidin-1-yl)-1H-benzo[d]imidazole] | 2.77 µM | 0.058 µM |  | 1.77 µM | 3.31 µM |
| Brc1c(Br)c(Br)c2c(nc(N3CCNCC3)n2Cc2ccccc2)c1Br [Compound 374, 1-benzyl-4,5,6,7-tetrabromo-2-(piperazin-1-yl)-1H-benzo[d]imidazole] | 2.5 µM | 0.107 µM | 1.33 µM | 1.44 µM | 1.3 µM |
| Brc1c(Br)c(Br)c2[nH]c(NC3CCCNCC3)nc2c1Br (centres unmarked) [Compound 366, N-(azepan-4-yl)-4,5,6,7-tetrabromo-1H-benzo[d]imidazol-2-amine] | 5.6 µM | 0.0035 µM | 1.7 µM | 2.84 µM | 0.6 µM |
| CC(C)n1c(N2CCNCC2)nc2c(Br)c(Br)c(Br)c(Br)c21 [Compound 359, 4,5,6,7-tetrabromo-1-isopropyl-2-(piperazin-1-yl)-1H-benzo[d]imidazole] | 2.95 µM | 0.00684 µM | 1.85 µM | 1.6 µM | 0.6 µM |
| CN(C)c1nc2c(Br)c(Br)c(Br)c(Br)c2n1CC(=O)O [Compound K66, 1-carboxymethyl-2-dimethylamino-4,5,6,7-tetrabromo-benzimidazole, reference compound] | > 10 µM | > 1 µM | > 10 µM | > 10 µM | > 10 µM |
| CN1CCCC(Nc2nc3c(Br)c(Br)c(Br)c(Br)c3[nH]2)CC1 (centres unmarked) [Compound 358, 4,5,6,7-tetrabromo-N-(1-methylazepan-4-yl)-1H-benzo[d]imidazol-2-amine] | 6.2 µM | 0.00582 µM | 2.65 µM | 2.42 µM | 1 µM |
| NC1CCCC(Nc2nc3c(Br)c(Br)c(Br)c(Br)c3[nH]2)C1 (centres unmarked) [Compound 336, N1-(4,5,6,7-tetrabromo-1H-benzo[d]imidazol-2-yl)cyclohexane-1,3-diamine] | 8.4 µM | 0.0188 µM | 4.87 µM | 4.15 µM | 2.6 µM |
| CCn1c(N2CCN(CCN3CCNCC3)CC2)nc2c(Br)c(Br)c(Br)c(Br)c21 [Compound 441, 4,5,6,7-tetrabromo-1-ethyl-2-(4-(2-(piperazin-1-yl)ethyl)piperazin-1-yl)-1H-benzo[d]imidazole] | 1.6 µM | 0.065 µM | 0.7 µM | 0.7 µM | 0.7 µM |
| CC(C)NC1CCCCC1Nc1nc2c(Br)c(Br)c(Br)c(Br)c2[nH]1 (centres unmarked) [Compound 369, N1-(4,5,6,7-tetrabromo-1H-benzo[d]imidazol-2-yl)-N2-isopropylcyclohexane-1,2-diamine] | 2.45 µM | 0.0411 µM | 1.4 µM | 0.55 µM | 1.3 µM |
| Brc1c(Br)c(Br)c2[nH]c(N[C@H]3COC[C@@H]3N3CCCC3)nc2c1Br [Compound 337, 4,5,6,7-tetrabromo-N-((3R,4R)-tetrahydro-4-(pyrrolidin-1-yl)furan-3-yl)-1H-benzo[d]imidazol-2-amine] | 3.83 µM | 0.0256 µM | 2.4 µM | 1.61 µM | 2.45 µM |
| C[C@@H]1CN(c2nc3c(Br)c(Br)c(Br)c(Br)c3[nH]2)[C@@H](C)CN1 [Compound 364, 4,5,6,7-tetrabromo-2-((2S,5R)-2,5-dimethylpiperazin-1-yl)-1H-benzo[d]imidazole] | 4.58 µM | 0.0103 µM | 2.33 µM | 1.27 µM | 1.97 µM |
| NCc1ccccc1CNc1nc2c(Br)c(Br)c(Br)c(Br)c2[nH]1 [Compound 349, N-(2-(aminomethyl)benzyl)-4,5,6,7-tetrabromo-1H-benzo[d]imidazol-2-amine] | 4.7 µM | 0.0698 µM | 2.51 µM | 1.61 µM | 1.58 µM |
| Brc1c(Br)c(Br)c2[nH]c(N[C@H]3COC[C@@H]3N3CCCCC3)nc2c1Br [Compound 338, 4,5,6,7-tetrabromo-N-((3R,4R)-tetrahydro-4-(piperidin-1-yl)furan-3-yl)-1H-benzo[d]imidazol-2-amine] | 4.76 µM | 0.0217 µM | 2.76 µM | 1.95 µM | 3.3 µM |
| Brc1c(Br)c(Br)c2[nH]c(NC3CCNCC3)nc2c1Br [Compound 435, 4,5,6,7-tetrabromo-N-(piperidin-4-yl)-1H-benzo[d]imidazol-2-amine] | 5.79 µM | 0.00668 µM |  | 1.27 µM | 0.68 µM |
| Brc1c(Br)c(Br)c2[nH]cnc2c1Br [TBI, 4,5,6,7-tetrabromo-1H-benzimidazole, reference compound] | > 10 µM | 0.102 µM | > 10 µM | 7.21 µM | > 10 µM |
| CCn1c(N2CCNCC2)nc2c(Br)c(Br)c(Br)c(Br)c21 [Compound 416, 4,5,6,7-tetrabromo-1-ethyl-2-(piperazin-1-yl)-1H-benzo[d]imidazole] | 2.1 µM | 0.00655 µM | 1.31 µM | 1.25 µM | 0.55 µM |
| NC1CCC(Nc2nc3c(Br)c(Br)c(Br)c(Br)c3[nH]2)CC1 (centres unmarked) [Compound 87, N1-(4,5,6,7-tetrabromo-1H-benzo[d]imidazol-2-yl)cyclohexane-1,4-diamine] | 5.65 µM | 0.0151 µM | 3.8 µM | 2.03 µM | 4.2 µM |
| CN(C)c1nc2c(Br)c(Br)c(Br)c(Br)c2[nH]1 [DMAT, 2-dimethylamino-4,5,6,7-tetrabromo-1H-benzimidazole, reference compound] | > 10 µM | 0.031 µM | > 10 µM | > 10 µM | 3.15 µM |
| CCCn1c(N2CCNCC2)nc2c(Br)c(Br)c(Br)c(Br)c21 [Compound 417, 4,5,6,7-tetrabromo-2-(piperazin-1-yl)-1-propyl-1H-benzo[d]imidazole] | 2.57 µM | 0.00936 µM | 1.85 µM | 2.56 µM | 0.56 µM |
| Brc1c(Br)c(Br)c2c(Br)n[nH]c2c1Br [Compound K64, 3,4,5,6,7-pentabromo-1H-indazole, reference compound] | > 10 µM | > 1 µM | > 10 µM | 9.13 µM | > 10 µM |
| CCCCCNC1CCCCC1Nc1nc2c(Br)c(Br)c(Br)c(Br)c2[nH]1 (centres unmarked) [Compound 413, N1-(4,5,6,7-tetrabromo-1H-benzo[d]imidazol-2-yl)-N2-pentylcyclohexane-1,2-diamine] | 1.45 µM | 0.119 µM | 1.36 µM | 0.58 µM | 1.55 µM |
| Brc1c(Br)c(Br)c2[nH]c(N3CCNCC3)nc2c1Br [Compound 20, 4,5,6,7-tetrabromo-2-(piperazin-1-yl)-1H-benzo[d]imidazole] | 5.14 µM | 0.0169 µM | 2.86 µM | 3.45 µM | 0.48 µM |
| CCn1c(N2CCN(CCCN3CCOCC3)CC2)nc2c(Br)c(Br)c(Br)c(Br)c21 [Compound 450] | 3.6 µM | 0.125 µM | 1.5 µM | 1 µM | 0.6 µM |
| Brc1c(Br)c(Br)c2[nH]nnc2c1Br [TBB, 4,5,6,7-tetrabromo-1Hbenzotriazole, reference compound] | > 10 µM | > 1 µM | > 10 µM | > 10 µM | > 10 µM |
| NCCCNc1nc2c(Br)c(Br)c(Br)c(Br)c2[nH]1 [Compound 11, N-(3-aminopropyl)-4,5,6,7-tetrabromo-1H-benzo[d]imidazol-2-amine] | 4.9 µM | 0.00589 µM | 2.84 µM | 2.47 µM | 1.03 µM |
